# Tested on: Chilo suppressalis
# Experiment: Rice field trials, Chilo suppressalis insect damage / white heads (Example 1, Trials 3-4, Thailand)
# Format: in vivo
# Conditions: for percent reduction in insect damage relative to untreated control: UTC given as 0
# Procedure: All applications were made with an EC formulation containing 650 g/L of pelargonic acid (e.g., 685 g/L of 95% purity pelargonic acid), an anionic emulsifier and a branched fatty acid ester solvent. […] Trials 1 4 assessing the use of pelargonic acid for controlling Chilo suppressalis in rice were conducted in Spain and Thailand. Application A was made to the crops at the beginning of infestations; for these trials, Stage BBCH 59; Application B was made 14 days after Application A. Trial 3 was conducted in Thailand using a water volume of 500 L/ha of water per application unless otherwise indicated. Insect Damage ([…] %), Insect Damage (Number) and Phytotoxicity were assessed at various treatment evaluation intervals. Population levels were recorded by counting number of rice plants per hill, number of white head (damage from rice stem borer) followed by calculation of % insect damage. Trial 4 was conducted in Thailand using a water volume of 500 L/ha of water per application unless otherwise indicated. Insect Damage ([…] %), Insect Damage (Number) and Phytotoxicity were assessed at various treatment evaluation intervals. Population levels were recorded by counting number of rice plants per hill, number of white head (damage from rice stem borer) followed by calculation of % insect damage.
# [1] = Trial 3, 21 DAB, water volume 500 L/ha, rate in treatment name, Prevathon 0.5 L/ha, listed as PA 2600 g/ha
# [2] = Trial 4, 0 DAA, water volume 200 L/ha
# [3] = Trial 4, 0 DAB, water volume 200 L/ha
# [4] = Trial 4, 0 DAB, water volume 500 L/ha, rate in treatment name, Prevathon 0.5 L/ha, listed as PA 585 g/ha
# [5] = Trial 4, 0 DAB, water volume 500 L/ha, rate in treatment name, Prevathon 0.5 L/ha, listed as PA 975 g/ha
# [6] = Trial 4, 0 DAB, water volume 500 L/ha, rate in treatment name, Prevathon 0.5 L/ha, listed as PA 1300 g/ha
# [7] = Trial 4, 0 DAB, water volume 500 L/ha, rate in treatment name, Prevathon 0.5 L/ha, listed as PA 2600 g/ha
# [8] = Trial 4, 7 DAA, water volume 200 L/ha
# [9] = Trial 4, 7 DAA, water volume 500 L/ha, rate in treatment name, Prevathon 0.5 L/ha, listed as PA 585 g/ha
# [10] = Trial 4, 7 DAA, water volume 500 L/ha, rate in treatment name, Prevathon 0.5 L/ha, listed as PA 975 g/ha
# [11] = Trial 4, 7 DAA, water volume 500 L/ha, rate in treatment name, Prevathon 0.5 L/ha, listed as PA 1300 g/ha
# [12] = Trial 4, 7 DAA, water volume 500 L/ha, rate in treatment name, Prevathon 0.5 L/ha, listed as PA 2600 g/ha
# [13] = Trial 4, 7 DAB, water volume 200 L/ha
# [14] = Trial 4, 7 DAB, water volume 500 L/ha, rate in treatment name, Prevathon 0.5 L/ha, listed as PA 585 g/ha
# [15] = Trial 4, 7 DAB, water volume 500 L/ha, rate in treatment name, Prevathon 0.5 L/ha, listed as PA 975 g/ha
# [16] = Trial 4, 7 DAB, water volume 500 L/ha, rate in treatment name, Prevathon 0.5 L/ha, listed as PA 1300 g/ha
# [17] = Trial 4, 7 DAB, water volume 500 L/ha, rate in treatment name, Prevathon 0.5 L/ha, listed as PA 2600 g/ha
# [18] = Trial 4, 10 DAA, water volume 200 L/ha
# [19] = Trial 4, 10 DAA, water volume 500 L/ha, rate in treatment name, Prevathon 0.5 L/ha, listed as PA 585 g/ha
# [20] = Trial 4, 10 DAA, water volume 500 L/ha, rate in treatment name, Prevathon 0.5 L/ha, listed as PA 975 g/ha
# [21] = Trial 4, 10 DAA, water volume 500 L/ha, rate in treatment name, Prevathon 0.5 L/ha, listed as PA 1300 g/ha
# [22] = Trial 4, 10 DAA, water volume 500 L/ha, rate in treatment name, Prevathon 0.5 L/ha, listed as PA 2600 g/ha
# [23] = Trial 4, 10 DAB, water volume 200 L/ha
# [24] = Trial 4, 10 DAB, water volume 500 L/ha, rate in treatment name, Prevathon 0.5 L/ha, listed as PA 585 g/ha
# [25] = Trial 4, 10 DAB, water volume 500 L/ha, rate in treatment name, Prevathon 0.5 L/ha, listed as PA 975 g/ha
# [26] = Trial 4, 10 DAB, water volume 500 L/ha, rate in treatment name, Prevathon 0.5 L/ha, listed as PA 1300 g/ha
# [27] = Trial 4, 10 DAB, water volume 500 L/ha, rate in treatment name, Prevathon 0.5 L/ha, listed as PA 2600 g/ha
# [28] = Trial 4, 14 DAB, water volume 200 L/ha
# [29] = Trial 4, 14 DAB, water volume 500 L/ha, rate in treatment name, Prevathon 0.5 L/ha, listed as PA 585 g/ha
# [30] = Trial 4, 14 DAB, water volume 500 L/ha, rate in treatment name, Prevathon 0.5 L/ha, listed as PA 975 g/ha
# [31] = Trial 4, 14 DAB, water volume 500 L/ha, rate in treatment name, Prevathon 0.5 L/ha, listed as PA 1300 g/ha
# [32] = Trial 4, 14 DAB, water volume 500 L/ha, rate in treatment name, Prevathon 0.5 L/ha, listed as PA 2600 g/ha
# [33] = Trial 4, 21 DAB, water volume 200 L/ha
# [34] = Trial 4, 21 DAB, water volume 500 L/ha, rate in treatment name, Prevathon 0.5 L/ha, listed as PA 585 g/ha
# [35] = Trial 4, 21 DAB, water volume 500 L/ha, rate in treatment name, Prevathon 0.5 L/ha, listed as PA 975 g/ha
# [36] = Trial 4, 21 DAB, water volume 500 L/ha, rate in treatment name, Prevathon 0.5 L/ha, listed as PA 1300 g/ha
# [37] = Trial 4, 21 DAB, water volume 500 L/ha, rate in treatment name, Prevathon 0.5 L/ha, listed as PA 2600 g/ha
structure (smiles),measurement,setting,value
"CCCCCCCCC(=O)O [PA 650 g/ha, pelargonic acid]","DAMINS % (insect damage, % white heads)",[1],0.19%
same,DAMINS (number): mean number of insect damage (white head symptoms),[1],0.75
same,DAMINS (number): mean number of insect damage (white head symptoms),[2],5.5
same,percent reduction in insect damage relative to untreated control,[2],0%
same,percent reduction in insect damage relative to untreated control,"Trial 4, 0 DAA, water volume 500 L/ha, rate in treatment name, Prevathon 0.5 L/ha",0%
same,DAMINS (number): mean number of insect damage (white head symptoms),"Trial 4, 0 DAA, water volume 500 L/ha, rate in treatment name, Prevathon 0.5 L/ha, listed as PA 585 g/ha",4.57
same,DAMINS (number): mean number of insect damage (white head symptoms),"Trial 4, 0 DAA, water volume 500 L/ha, rate in treatment name, Prevathon 0.5 L/ha, listed as PA 975 g/ha",5.19
same,DAMINS (number): mean number of insect damage (white head symptoms),"Trial 4, 0 DAA, water volume 500 L/ha, rate in treatment name, Prevathon 0.5 L/ha, listed as PA 1300 g/ha",5.23
same,DAMINS (number): mean number of insect damage (white head symptoms),"Trial 4, 0 DAA, water volume 500 L/ha, rate in treatment name, Prevathon 0.5 L/ha, listed as PA 2600 g/ha",5.07
same,DAMINS (number): mean number of insect damage (white head symptoms),[3],1.36
same,percent reduction in insect damage relative to untreated control,[3],71.53%
same,percent reduction in insect damage relative to untreated control,[4],22.87%
same,percent reduction in insect damage relative to untreated control,[5],28.25%
same,percent reduction in insect damage relative to untreated control,[6],38.54%
same,percent reduction in insect damage relative to untreated control,[7],67.46%
same,DAMINS (number): mean number of insect damage (white head symptoms),[4],3.57
same,DAMINS (number): mean number of insect damage (white head symptoms),[5],3.34
same,DAMINS (number): mean number of insect damage (white head symptoms),[6],2.88
same,DAMINS (number): mean number of insect damage (white head symptoms),[7],1.49
same,DAMINS (number): mean number of insect damage (white head symptoms),[8],2.94
same,percent reduction in insect damage relative to untreated control,[8],62.66%
same,percent reduction in insect damage relative to untreated control,[9],15.96%
same,percent reduction in insect damage relative to untreated control,[10],22.58%
same,percent reduction in insect damage relative to untreated control,[11],44.41%
same,percent reduction in insect damage relative to untreated control,[12],51.10%
same,DAMINS (number): mean number of insect damage (white head symptoms),[9],6.67
same,DAMINS (number): mean number of insect damage (white head symptoms),[10],6.09
same,DAMINS (number): mean number of insect damage (white head symptoms),[11],4.38
same,DAMINS (number): mean number of insect damage (white head symptoms),[12],3.87
same,DAMINS (number): mean number of insect damage (white head symptoms),[13],0.76
same,percent reduction in insect damage relative to untreated control,[13],80.70%
same,percent reduction in insect damage relative to untreated control,[14],27.16%
same,percent reduction in insect damage relative to untreated control,[15],36.66%
same,percent reduction in insect damage relative to untreated control,[16],49.64%
same,percent reduction in insect damage relative to untreated control,[17],66.66%
same,DAMINS (number): mean number of insect damage (white head symptoms),[14],2.86
same,DAMINS (number): mean number of insect damage (white head symptoms),[15],2.52
same,DAMINS (number): mean number of insect damage (white head symptoms),[16],1.93
same,DAMINS (number): mean number of insect damage (white head symptoms),[17],1.32
same,DAMINS (number): mean number of insect damage (white head symptoms),[18],1.76
same,percent reduction in insect damage relative to untreated control,[18],80.59%
same,percent reduction in insect damage relative to untreated control,[19],40.99%
same,percent reduction in insect damage relative to untreated control,[20],44.26%
same,percent reduction in insect damage relative to untreated control,[21],56.19%
same,percent reduction in insect damage relative to untreated control,[22],72.62%
same,DAMINS (number): mean number of insect damage (white head symptoms),[19],5.33
same,DAMINS (number): mean number of insect damage (white head symptoms),[20],4.99
same,DAMINS (number): mean number of insect damage (white head symptoms),[21],3.94
same,DAMINS (number): mean number of insect damage (white head symptoms),[22],2.48
same,DAMINS (number): mean number of insect damage (white head symptoms),[23],1.06
same,percent reduction in insect damage relative to untreated control,[23],77.49%
same,percent reduction in insect damage relative to untreated control,[24],22.53%
same,percent reduction in insect damage relative to untreated control,[25],51.13%
same,percent reduction in insect damage relative to untreated control,[26],61.44%
same,percent reduction in insect damage relative to untreated control,[27],74.82%
same,DAMINS (number): mean number of insect damage (white head symptoms),[24],3.71
same,DAMINS (number): mean number of insect damage (white head symptoms),[25],2.35
same,DAMINS (number): mean number of insect damage (white head symptoms),[26],1.86
same,DAMINS (number): mean number of insect damage (white head symptoms),[27],1.19
same,DAMINS (number): mean number of insect damage (white head symptoms),[28],0.9
same,percent reduction in insect damage relative to untreated control,[28],80.46%
same,percent reduction in insect damage relative to untreated control,[29],19.69%
same,percent reduction in insect damage relative to untreated control,[30],40.42%
same,percent reduction in insect damage relative to untreated control,[31],46.02%
same,percent reduction in insect damage relative to untreated control,[32],76.77%
same,DAMINS (number): mean number of insect damage (white head symptoms),[29],3.78
same,DAMINS (number): mean number of insect damage (white head symptoms),[30],2.74
same,DAMINS (number): mean number of insect damage (white head symptoms),[31],2.54
same,DAMINS (number): mean number of insect damage (white head symptoms),[32],1.1
same,DAMINS (number): mean number of insect damage (white head symptoms),[33],1.24
same,percent reduction in insect damage relative to untreated control,[33],74.20%
same,percent reduction in insect damage relative to untreated control,[34],29.88%
same,percent reduction in insect damage relative to untreated control,[35],37.44%
same,percent reduction in insect damage relative to untreated control,[36],52.85%
same,percent reduction in insect damage relative to untreated control,[37],71.12%
same,DAMINS (number): mean number of insect damage (white head symptoms),[34],3.3
same,DAMINS (number): mean number of insect damage (white head symptoms),[35],2.96
same,DAMINS (number): mean number of insect damage (white head symptoms),[36],2.26
same,DAMINS (number): mean number of insect damage (white head symptoms),[37],1.38

# From patent US20250127162A1, “METHODS AND COMPOSITIONS FOR CONTROLLING PESTS IN RICE” (Globachem NV, priority 2022, published 2025)
